US20100041603A1, “Method of Promoting Wound Healing” (Corthera, Inc., priority 2008, published 2010)
“Also recorded” adds a separate entry of the source.

Tests used:
wounded sites = conditions: systemic relaxin administration in rats; cited from earlier work
[1] = test system: 20×6 mm incisional wounds on the back; experiment: Porcine skin wound study (incisional wounds, six weeks); type: in vivo, juvenile pigs; conditions: dose range 10-960 μg/kg/day
[2] = Canine gingiva study: RLX migration and degradation after gingival injection (SELDI-TOF MS); type: in vivo, dog; conditions: for RLX detection in gingiva away from the site of injection: 1 hr time point; for concentration of H2 RLX detected in treated dog gingiva: site of injection
Experimental: The aim of this study was to determine the rate of RLX migration and extent of degradation after gingival injections. […] Employing a dog model, RLX was administered and tissue punch biopsies were collected at the site of injection and 0.5, 1 and 2 cm from the site of injection. Tissue was collected at several time points including 1, 2 and 4 hrs after injection. Protein was extracted from the gingival biopsies and analysed via ProteinChip technology (Surface Enhanced Laser Desorption/Ionization Time-of-Flight Mass Spectrometry, SELDI-TOF MS), which combines two well-established methods of solid phase chromatography and TOF-MS into an integrated platform. ProteinChip arrays were coated with anti-H2 RLX Ab, allowing the specific capture of RLX and associated breakdown/modified products.
Design of Drug. Gingival injections were administered (25 μg H2 RLX/100 μl, 41 μM) and tissue was collected at several positions including the site of injection and 0.5, 1 and 2 cm from the site of injection. Tissue was collected 1, 2 and 3 hrs after injection.
a) Protein Extraction and Quantitation. Frozen gingival biopsies were homogenized in extraction buffer (10 μl/mg tissue) containing 10 mM Tris-HCl, 10 mM NaCl, 0.1% TFA and protease inhibitor (complete mini, Roche). The extract was centrifuged (6000×g) for 10 min and the supernatant was collected, aliquoted and stored at −80° C. Total protein concentration was determined using the Bradford assay. Protein concentrations ranged from 1.4 mg/ml to 2.8 mg/ml, all samples were standardized to 1.4 mg/ml in extraction buffer.
b) SELDI-TOF MS analysis—Analysis of RLX treated gingiva on PG20 arrays. Anti-H2 RLX Ab ([…]/0.25 mg/ml; Genentech) or control IgG (Ciphergen Biosystems) was applied to each spot of a PS20 array which had been pre-coated with Protein G (Ciphergen Biosystems). After antibody binding, the chip was washed once with PBS/0.5% Triton X-100 for 5 min with agitation (5 μl per spot), followed by two PBS washes. Dog gingiva extracts (3 μl/1.4 mg/ml) were applied to each spot and incubated for 4 hrs. Non-specifically bound proteins were removed by sequentially washing with PBS/0.5% Triton X-100, PBS and 1 mM HEPES, pH 7.2. The chips were air dried and 1 μl of 50% saturated sinapinic acid in 50% (v/v) acetonitrile, 0.5% trifluoroacetic acid was applied onto each spot twice, arrays were air dried between each application. Chips were subsequently analysed by SELDI-TOF MS (Ciphergen Biosystems) using the following settings, laser 220 and sensitivity 9.
c) Generation of H2 RLX Std Curve on PG20 arrays. H2 RLX (batch number 11835-89) was spiked into control dog gingiva (1.4 mg/ml) at different concentrations, including 100 nM, 50 nM, 12.5 nM, 6.25 nM, 3.125 nM and 1.56 nM and analysed as described above.
Findings. In order to quantitate the levels of RLX in the treated gingiva samples a H2 RLX standard curve was generated. The linear dynamic range was determined to be two orders of magnitude with a R^2 value of 0.9495.

[3] = test system: 20×6 mm incisional wounds on the back; experiment: Porcine skin wound study (incisional wounds, six weeks); type: in vivo, juvenile pigs
Description: Overview of the Animal Study. In selecting the appropriate animal for this study, a pig was selected because of the anatomical similarities between pig skin and human skin. In fact, pig wound healing has been used in numerous studies to simulate human skin (Sullivan et al., Wound Repair Regen. 9: 66-76, 2001).
Design of Study. In this study, juvenile pigs were oriented with twelve wound sites per animal—20×6 mm incisional wounds on the back—over the course of a six week study (see FIG. 2). Systemic relaxin was delivered via mini-pumps to achieve 20 ng/mL serum concentrations. Topical formulations were prepared by Dow Pharma, and consisted of propylene glycol and ethanol, which contributed to good long term stability of the therapeutic agent. Dosages consisting of placebo, 0.5 mg/mL (low dose), and 2.5 mg/mL (high dose) were prepared. The goals of the study were to assess the safety of topical relaxin on wound healing and to determine the efficacy of relaxin as a treatment for wound healing and/or scar formation. During the first week, irrigation was performed once daily. During weeks 2-3, topical formulation was applied twice daily, and during weeks […], topical formulation was applied once daily.
Design of Drug The study drug was relaxin (produced by recombinant technology). Recombinant relaxin is identical to the native human hormone H2 relaxin, produced using a recombinant single chain process. The active test article may be aseptically diluted to the desired concentration with the acetate diluent (20 mM sodium acetate, pH 5.0).
Study Procedures. Referring to FIG. 3 which depicts the back of a pig with incisions according to the experimental design described herein at the completion of six weeks, the wound in Section 3 was irrigated with relaxin construct during the first week, and subsequently treated with high dose topical relaxin formulation during weeks 2-6 as described above. Sections 4, 5, and 6 received no irrigation during week 1. Section 4 was treated with placebo. Section 5 was treated with low dose topical formulation, and Section 6 was treated with high dose topical formulation.
Cosmetic appearance of skin. Visual rankings of wound pictures were conducted by neutral observers who evaluated scabs during early wound healing (days 5-7) and scars at the end of the study (see FIG. 4). […] The results of this visual wound assessment determined that 89% of the time a relaxin treatment group was selected in the top three. Only 11% of the time, a group not treated with relaxin was selected in the top three.
A cosmetic score was also determined by a professional dermatologist at weeks 2, 4, and 6. The cosmetic score has five components: (1) color—matching with surrounding skin; (2) texture—no hardness; (3) distortion—no distortion of nearby skin; (4) contour—flush with surrounding skin; (5) global—no hypertrophy or keloid formation. During this dermatological assessment, evaluation at time 2 weeks was obscured by scabs, so the data for cosmetic scores was collected from evaluation at weeks 4 and 6 (see FIG. 5). […] In the bottom profile, the scar is visible.
Histological evaluation. A professional histopathologist evaluated the pathology of the treatments for such indications as granulation, inflammation, and necrosis. In judging granulation tissue, it is considered that early response to wound includes invasion of the site by fibroblasts, inflammatory cells, and new blood vessels. Over time, this resolves to more normal tissue as the site heals. Chronic inflammation characterized by the presence of macrophages, giant cells, lymphocytes, and PMNs indicated adverse reaction. Minor factors such as keratosis (formation of keratin layer outside the epidermis) and acanthosis (thickening of the epidermal layer) are also considered. […]

[4] = systemic relaxin vs wounds not receiving systemic relaxin
[5] = systemic relaxin, six weeks, blinded assessments

**Q.** Which “VEGF and bFGF transcripts at wounded sites” value (wounded sites) does the source give for “relaxin: Recombinant relaxin identical to the native human hormone H2 relaxin, produced using a recombinant single chain process” here?
**A.** upregulation

**Q.** What about the “new blood vessel formation at wounded sites” value (wounded sites) of the same substance?
**A.** increased new blood vessel formation

**Q.** What about the “adverse effects and tolerability over dose range” value [1] of the same substance?
**A.** no relevant adverse effects; also recorded: well-tolerated

**Q.** What about the “RLX detection in gingiva away from the site of injection” value (“RLX detection in gingiva away” below) ([2]; 0.5 cm from site of injection) of the same substance?
**A.** detected

**Q.** And the “RLX detection in gingiva away” value ([2]; 1 cm from site of injection)?
**A.** not detected

**Q.** And the “RLX detection in gingiva away” value ([2]; 2 cm from site of injection)?
**A.** not detected

**Q.** And the “RLX detection in gingiva” value ([2]; remaining time points (2 and 4 hrs))?
**A.** only detected at the site of injection

**Q.** What about the “concentration of H2 RLX detected in treated dog gingiva” value (shortened to “concentration of H2 RLX detected”) ([2]; 1 hr after gingival injection (25 μg H2 RLX/100 μl)) of the same substance?
**A.** 90 nM

**Q.** What about the “concentration of H2 RLX detected” value ([2]; 2 hrs after gingival injection) of the same substance?
**A.** 78 nM

**Q.** What about the “concentration of H2 RLX detected” value ([2]; 4 hrs after gingival injection) of the same substance?
**A.** 21 nM

**Q.** What about the “blood vessels / redness in the wound site” value ([3]; after about six weeks of treatment) of the same substance?
**A.** overall reduction in blood vessels; also recorded: significantly less redness

**Q.** What about the “wound appearance compared to control pig” value ([3]; after day six, systemic relaxin) of the same substance?
**A.** healed faster, better

**Q.** And the “visual wound assessment: share of times a relaxin treatment group was selected in the top three” value ([3]; blinded neutral observers ranking the best three of six groups of wound pictures)?
**A.** 89%

**Q.** What about the “cosmetic ranking of wound/scar areas, irrigation vs topical only” value ([3]; dermatologist cosmetic score, weeks 4 and 6, irrigation relaxin treatment vs only topical relaxin treatment) of the same substance?
**A.** ranked higher overall

**Q.** And the “adverse effects associated with relaxin treatment (histopathology)” value ([3]; pig, in vivo)?
**A.** no adverse effects

**Q.** What about the “necrosis or inflammation associated with relaxin treatment” value ([3]; pig, in vivo) of the same substance?
**A.** no necrosis or inflammation

**Q.** And the “scar visibility at wound site” value ([3]; six weeks of treatment, systemic relaxin vs placebo)?
**A.** the scar is invisible; also recorded: no scar was visible

**Q.** And the “scarring on histopathological slide” value ([3]; six weeks, relaxin treatment vs no relaxin treatment (severe scarring))?
**A.** mild scarring

**Q.** And the “collagen organization (objective collagen scoring system, redness ratio)” value [3, 4]?
**A.** significantly better collagen organization

**Q.** And the “composite wound healing score (three point scale, collagen appearance)” value [3, 4]?
**A.** significantly improved

**Q.** And the “chronic inflammation in wound sites (histology score)” value [3, 5]?
**A.** significantly reduced

**Q.** And the “granulation tissue in wound sites (histology score)” value [3, 5]?
**A.** significantly reduced

**Q.** What about the “wound healing, systemic vs topical administration” value ([3]; systemic treatment compared to topical administration) of the same substance?
**A.** better wound healing

**Q.** What about the “wound healing compared to placebo” value ([3]; topical-only treatment (low and high dose, sections 5 and 6 vs section 4), six weeks) of the same substance?
**A.** improved wound healing
